# Measured values: US10736883B2, “Triazole furan compounds as agonists of the APJ receptor” (AMGEN INC., priority 2016, dated 2020)
# Assays:
# [1] = system: MI-induced heart failure rats; assay: Cardiovascular effects of Example 56.0 and captopril/losartan on MI-induced heart failure rats; assay type: in vivo, rat
# Protocol: Cardiovascular Effects of Example 56.0 and Captopril/Losartan on MI-Induced Heart Failure Rats
# Male Lewis rats at 2-3 months of age were used for the study. MI was induced by ligation of the LAD. Echocardiography (Echo) was performed at one-week post-MI on rats for verification of infarct size and animal enrollment Animals with ejection fractions more than 40% or no visible infarct in myocardium were excluded from the study. All eligible MI rats were randomly divided into 3 groups: 1) those treated with vehicle; 2) those treated with losartan (0.5 g/L in drink water); and 3) those treated with captopril (0.5 g/L in drink water). Treatments were initiated approximately five weeks post-MI and animals were continuously treated with losartan and captopril in drinking water up to 15 days prior to being assigned into each subgroup. These subgroup groups included the following: 1) cohort treated with vehicle; 2) cohort treated with Example 56.0 at various doses; 3) cohort treated only with losartan; 4) cohort treated with losartan and Example 56.0 at various doses; 5) cohort treated only with captopril; and 6) cohort treated with captopril and Example 56.0 at various doses. A Millar PV catheter was inserted into the right common carotid artery and then advanced to the left ventricle (LV) for cardiac hemodynamic assessment and the peripheral arterial pressure was also monitored by a pressure transducer via a femoral artery access in all rats. Following hemodynamic stabilization, baseline steady-state data was acquired Animals in any Example 56 treated group received intravenous infusion of Example 56.0 in a dose-escalated fashion during cardiac hemodynamic assessment. Blood was drawn for actual PK exposure to derive a PK/PD profile.
# [2] = target: T1, APJ receptor (Homo sapiens (Human), UniProt P35414); assay: [35S]GTPγS binding assay on membranes from CHO cells stably expressing human APJ receptor; assay type: biochemical; settings: membranes of CHO cells stably expressing human APJ receptor, means of several independent experiments, read-out: Activity hAPJ SPA EC50 IP
# Summary of the method: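 EC50 values were obtained by non-linear regression of [35S]GTPγS (0.2 nM) binding after 90 min at RT, with nonspecific binding defined by 100 μM GTPγS. Reactions used human APJ–expressing CHO cell membranes on WGA PS beads in HEPES pH 7.5 buffer with 5 mM MgCl2, 200 mM NaCl, 3 μM GDP and 0.1% BSA.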
# [3] = system: isolated perfused rat hearts; assay: Ex vivo isolated perfused rat heart (Langendorff) assay, load independent inotropic/lusitropic effects; settings: percent change over vehicle
# Text: Evidence for Load Independent Inotropic Effects with APJ Agonists Using Ex Vivo Assay (Isolated Perfused Rat Hearts)
# Naive Sprague Dawley® SD rats (Harlan laboratories (Livermore, Calif. USA)) were anaesthetized and hearts were excised followed by cannulation in the Langendorff apparatus (Harvard apparatus, Holliston, Mass. USA) via aorta. The heart was perfused retrograde with modified oxygenated Krebs-Henseleit buffer (Skrzypiec-Spring M et al., (2007) J. Pharmacol Toxicol Methods 55: 113-126). The pressure of the solution causes the aortic valve to shut and the perfusate is then forced into the ostium and the coronary vessels. This allows the heart to beat for several hours. A balloon was inserted into the left ventricle (LV) to measure dP/dtmax (derivative of left ventricular pressure) as an index of cardiac contractility. The APJ agonist was perfused constantly in a dose dependent manner into the heart to examine cardiac contractility.
# Example 210.0 was infused at different concentrations and load independent contractility was measured by index of LV dP/dtmax and the results are expressed as a percent change over vehicle. […] Example 210.0 was infused at different concentrations and load independent lusitropic effect (relaxation) was measured by index of LV dP/dtmin where results are expressed as percent change over vehicle. […] Example 51.0 was infused at different concentrations and load independent contractility was measured by index of LV dP/dtmax and the results are expressed as a percent change over vehicle. […] Example 51.0 was infused at different concentrations and load independent lusitropic effect (relaxation) was measured by index of LV dP/dtmin where results are expressed as percent change over vehicle.
# [4] = system: heart failure rat model; assay: In vivo cardiac contractility in heart failure (MI) rat model; settings: heart failure rats (LAD ligation), acute administration for 30 min
# Protocol: Evidence for Improvement in Cardiac Contractility In Vivo in Heart Failure Rat Model
# Based on the ex vivo findings in isolated heart assay, APJ agonists were dosed in vivo to investigate the translation of cardiac contractility in in vivo settings. Male Lewis rats (Charles River, USA) at 2-3 months of age were used for the study. Heart failure was induced by permanent ligation of the left descending coronary artery which results in injury to the heart with an ejection fraction of <35%. APJ agonists were administered dose dependently acutely for a period of 30 min. Administration of example compounds lead to an increase in cardiac contractility as measured by dP/dtmax (derivative of left ventricular pressure) (Table 27).
# [5] = system: isolated rat heart; assay: Isolated rat heart assay with APJ agonist in the presence or absence of AT1R blocker losartan
# Text: Evidence for Blockade of AT1R Signaling Enhances the APJ Receptor Signaling Using Ex-Vivo (Isolated Rat Heart Assay) and In Vivo (Myocardial Infraction (MI)-Induced Heart Failure Model)
# Naive Sprague Dawley® SD rats were anaesthetized and hearts were excised followed by cannulation in the Langendorff apparatus via aorta. The heart was perfused retrograde with modified oxygenated Krebs-Henseleit buffer. The pressure of the solution causes the aortic valve to shut and the perfusate was then forced into the ostium and the coronary vessels. This allowed the heart to beat for several hours. A balloon was inserted into the left ventricle to measure dp/dtmax as an index of cardiac contractility. The APJ agonist (Example 56.0) was perfused in the presence or absence of AT1R blocker losartan.
# [6] = target: T1, APJ receptor; settings: apelin-36, apelin-17 and apelin-13 compared; cited from earlier work
# [7] = Example 56.0 alone over vehicle, intravenous infusion, MI rats
# T1 sequence (P35414 whole entry): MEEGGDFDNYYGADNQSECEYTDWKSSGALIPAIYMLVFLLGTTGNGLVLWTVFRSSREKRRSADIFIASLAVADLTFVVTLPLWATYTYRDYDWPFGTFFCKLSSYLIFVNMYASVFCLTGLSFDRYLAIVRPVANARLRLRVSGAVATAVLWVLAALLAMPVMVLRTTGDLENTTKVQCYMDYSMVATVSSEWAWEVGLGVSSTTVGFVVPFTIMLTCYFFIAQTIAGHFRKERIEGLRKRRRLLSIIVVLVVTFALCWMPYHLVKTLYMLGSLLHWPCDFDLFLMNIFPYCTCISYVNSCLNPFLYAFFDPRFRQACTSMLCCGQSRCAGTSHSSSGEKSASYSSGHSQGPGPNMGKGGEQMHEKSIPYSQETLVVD
compound,measurement,setting,value
"C[C@H](CS)C(=O)N1CCC[C@H]1C(=O)O [Captopril, captopril, reference compound]",contractility or ejection fraction,"[1]; captopril alone, acute settings, heart failure rats in vivo",does not show a marked improvement
"COc1cccc(OC)c1-n1c(NS(=O)(=O)[C@@H](C)[C@H](C)c2ncc(F)cn2)nnc1-c1ccc(C)o1 [Example 56.0, (2S,3R)—N-(4-(2,6-dimethoxyphenyl)-5-(5-methyl-2-furanyl)-4H-1,2,4-triazol-3-yl)-3-(5-fluoro-2-pyrimidinyl)-2-butanesulfonamide]",EC50,[2],0.071 nM
same,Isolated Heart Assay dP/dtmax (%),[3]; contractility,23.0%
same,Isolated Heart Assay dP/dtmin (%),[3]; relaxation,24.9%
same,MI Rat Model dP/dtmax (%),[4],30%
same,inotropic effects,[5]; APJ agonist alone,dose-dependent increase
same,Emax on co-infusion of AT1R blocker losartan,[5]; co-infusion of losartan,increased
same,increase of potency on co-infusion of AT1R blocker losartan,[5]; co-infusion of losartan,5 fold
same,heart rate,"[1]; Example 56.0 alone or in combination with an ARB or ACE inhibitor, MI rats",did not significantly change
same,dp/dtmax,[1]; [7],increase
same,ejection fraction,[1]; [7],increase
same,contractile function,"[1]; plus losartan or captopril, over Example 56.0 therapy alone, MI rats",further augmented
"Apelin-36 (LVQPRGSRNGPGPWQGGRRKFRRQRPRLSHKGPMPF; Apelin-36; UniProt Q9ULZ1 42-77, looked up)",in vitro activity (relative potency),[6],approximately equipotent
apelin-17,in vitro activity (relative potency),[6],approximately equipotent
